{"source": "ChEMBL document CHEMBL4308859", "about": "“Discovery of Novel Central Nervous System Penetrant Metabotropic Glutamate Receptor Subtype 2 (mGlu2) Negative Allosteric Modulators (NAMs) Based on Functionalized Pyrazolo[1,5- a]pyrimidine-5-carboxamide and Thieno[3,2- b]pyridine-5-carboxamide Cores” (J Med Chem, 2018)", "key": {"[1]": {"test": "Fraction unbound in rat plasma after 4 hrs by equilibrium dialysis method", "type": "ADME, cell-free"}, "[2]": {"test": "Unbound brain to plasma ratio in Sprague-Dawley rat at 0.2 mg/kg, iv administered as cassette dose by LC-MS/MS analysis", "type": "ADME, organism-based", "details": "brain and plasma, read-out: K(p,uu,brain)"}, "[3]": {"biological_target": "Metabotropic glutamate receptor 2 (Rattus norvegicus) (UniProt P31421)", "sequence (P31421 19-872 limits assumed)": "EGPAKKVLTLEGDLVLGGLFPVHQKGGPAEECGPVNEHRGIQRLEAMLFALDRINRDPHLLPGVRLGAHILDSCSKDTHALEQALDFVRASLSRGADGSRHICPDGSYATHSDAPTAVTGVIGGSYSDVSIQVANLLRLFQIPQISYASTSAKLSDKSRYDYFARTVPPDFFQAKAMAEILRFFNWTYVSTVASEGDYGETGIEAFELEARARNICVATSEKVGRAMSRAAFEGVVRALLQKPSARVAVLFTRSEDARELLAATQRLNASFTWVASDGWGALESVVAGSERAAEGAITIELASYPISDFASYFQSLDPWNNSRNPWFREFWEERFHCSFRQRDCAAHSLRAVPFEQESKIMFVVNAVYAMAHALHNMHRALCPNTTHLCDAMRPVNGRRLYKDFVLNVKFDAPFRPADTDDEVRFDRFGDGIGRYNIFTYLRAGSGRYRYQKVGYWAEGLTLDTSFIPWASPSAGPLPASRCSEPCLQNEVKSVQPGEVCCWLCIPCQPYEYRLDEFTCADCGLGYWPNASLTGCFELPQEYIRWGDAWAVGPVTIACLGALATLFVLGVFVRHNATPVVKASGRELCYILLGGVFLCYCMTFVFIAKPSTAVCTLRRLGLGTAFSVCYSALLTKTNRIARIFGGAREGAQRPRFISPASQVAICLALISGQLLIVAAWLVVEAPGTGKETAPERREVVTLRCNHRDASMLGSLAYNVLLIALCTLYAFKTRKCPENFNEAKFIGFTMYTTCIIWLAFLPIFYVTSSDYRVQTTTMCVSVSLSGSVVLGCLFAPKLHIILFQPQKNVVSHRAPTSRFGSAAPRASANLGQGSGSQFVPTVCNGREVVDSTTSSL", "test": "Negative allosteric modulation of rat mGlu2R expressed in HEK293 cells co-expressing Galpha15 assessed as decrease in glutamate-induced calcium mobilization at 30 uM preincubated for 2.3 mins followed by glutamate addition and measured after 1.7 mins by Fluo-4-AM dye based fluorescence assay relative to control", "type": "functional, cell-based"}, "[4]": {"test": "Fraction unbound in human plasma after 4 hrs by equilibrium dialysis method", "type": "ADME, cell-free"}, "[5]": {"test": "Fraction unbound in rat brain", "type": "ADME, tissue-based"}, "[6]": {"biological_target": "Metabotropic glutamate receptor 2 (Rattus norvegicus, UniProt P31421)", "sequence (P31421 whole entry)": "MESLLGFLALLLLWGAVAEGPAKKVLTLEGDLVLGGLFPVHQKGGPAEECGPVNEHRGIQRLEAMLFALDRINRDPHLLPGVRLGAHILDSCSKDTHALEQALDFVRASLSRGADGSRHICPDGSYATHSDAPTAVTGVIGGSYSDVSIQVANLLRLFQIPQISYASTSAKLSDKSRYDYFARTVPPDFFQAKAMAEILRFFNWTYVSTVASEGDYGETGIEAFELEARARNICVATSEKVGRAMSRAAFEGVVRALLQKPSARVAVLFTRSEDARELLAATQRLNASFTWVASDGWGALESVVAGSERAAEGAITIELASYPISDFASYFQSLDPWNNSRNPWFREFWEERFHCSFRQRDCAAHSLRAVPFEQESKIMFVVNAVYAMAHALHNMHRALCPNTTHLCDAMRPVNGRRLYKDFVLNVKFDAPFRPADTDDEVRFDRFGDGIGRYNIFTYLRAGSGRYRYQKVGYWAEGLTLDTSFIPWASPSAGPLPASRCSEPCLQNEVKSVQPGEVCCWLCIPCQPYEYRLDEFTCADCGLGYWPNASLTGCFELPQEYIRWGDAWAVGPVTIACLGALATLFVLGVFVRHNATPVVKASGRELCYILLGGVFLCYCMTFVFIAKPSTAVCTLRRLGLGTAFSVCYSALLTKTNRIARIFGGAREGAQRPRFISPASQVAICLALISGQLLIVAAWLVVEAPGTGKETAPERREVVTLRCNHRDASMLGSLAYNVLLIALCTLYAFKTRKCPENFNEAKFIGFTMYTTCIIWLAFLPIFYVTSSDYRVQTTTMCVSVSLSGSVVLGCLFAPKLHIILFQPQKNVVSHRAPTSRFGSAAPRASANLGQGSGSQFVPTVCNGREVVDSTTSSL", "test": "Negative allosteric modulation of rat mGlu2R expressed in HEK293 cells co-expressing Galpha15 assessed as decrease in glutamate-induced calcium mobilization preincubated for 2.3 mins followed by glutamate addition and measured after 1.7 mins by Fluo-4-AM dye based fluorescence assay", "type": "functional, cell-based"}, "[7]": {"test": "Brain to plasma partition coefficient, Kp of the compound in Sprague-Dawley rat at 0.2 mg/kg, iv administered as cassette dose by LC-MS/MS analysis", "type": "ADME, organism-based", "details": "brain and plasma"}, "[8]": {"biological_target": "Metabotropic glutamate receptor 3 (Homo sapiens, UniProt Q14832)", "sequence (Q14832 whole entry)": "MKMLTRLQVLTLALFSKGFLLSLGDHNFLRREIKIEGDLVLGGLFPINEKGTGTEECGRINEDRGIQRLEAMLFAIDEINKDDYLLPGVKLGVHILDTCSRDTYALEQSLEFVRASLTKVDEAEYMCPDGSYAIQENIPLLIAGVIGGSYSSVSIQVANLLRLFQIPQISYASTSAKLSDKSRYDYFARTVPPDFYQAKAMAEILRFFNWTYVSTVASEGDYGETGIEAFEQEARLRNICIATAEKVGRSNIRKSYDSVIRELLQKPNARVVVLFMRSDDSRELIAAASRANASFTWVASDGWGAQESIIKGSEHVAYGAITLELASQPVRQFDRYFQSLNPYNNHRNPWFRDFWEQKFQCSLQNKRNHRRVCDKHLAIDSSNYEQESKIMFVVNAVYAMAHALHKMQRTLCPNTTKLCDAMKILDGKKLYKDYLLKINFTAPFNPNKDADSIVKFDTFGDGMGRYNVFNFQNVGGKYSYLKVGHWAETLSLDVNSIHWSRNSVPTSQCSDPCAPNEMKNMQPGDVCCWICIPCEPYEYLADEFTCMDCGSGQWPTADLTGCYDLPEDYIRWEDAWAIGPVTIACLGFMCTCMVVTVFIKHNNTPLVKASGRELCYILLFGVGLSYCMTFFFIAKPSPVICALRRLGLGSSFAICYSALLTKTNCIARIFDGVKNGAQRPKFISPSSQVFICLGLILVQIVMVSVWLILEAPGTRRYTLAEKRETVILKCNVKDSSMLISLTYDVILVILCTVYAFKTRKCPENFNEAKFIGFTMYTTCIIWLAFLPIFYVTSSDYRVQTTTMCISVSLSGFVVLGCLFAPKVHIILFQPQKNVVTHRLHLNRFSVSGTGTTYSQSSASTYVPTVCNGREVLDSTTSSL", "test": "Negative allosteric modulation of mGlu3R (unknown origin)"}, "[9]": {"biological_target": "Metabotropic glutamate receptor 2 (Homo sapiens, UniProt Q14416)", "sequence (Q14416 whole entry)": "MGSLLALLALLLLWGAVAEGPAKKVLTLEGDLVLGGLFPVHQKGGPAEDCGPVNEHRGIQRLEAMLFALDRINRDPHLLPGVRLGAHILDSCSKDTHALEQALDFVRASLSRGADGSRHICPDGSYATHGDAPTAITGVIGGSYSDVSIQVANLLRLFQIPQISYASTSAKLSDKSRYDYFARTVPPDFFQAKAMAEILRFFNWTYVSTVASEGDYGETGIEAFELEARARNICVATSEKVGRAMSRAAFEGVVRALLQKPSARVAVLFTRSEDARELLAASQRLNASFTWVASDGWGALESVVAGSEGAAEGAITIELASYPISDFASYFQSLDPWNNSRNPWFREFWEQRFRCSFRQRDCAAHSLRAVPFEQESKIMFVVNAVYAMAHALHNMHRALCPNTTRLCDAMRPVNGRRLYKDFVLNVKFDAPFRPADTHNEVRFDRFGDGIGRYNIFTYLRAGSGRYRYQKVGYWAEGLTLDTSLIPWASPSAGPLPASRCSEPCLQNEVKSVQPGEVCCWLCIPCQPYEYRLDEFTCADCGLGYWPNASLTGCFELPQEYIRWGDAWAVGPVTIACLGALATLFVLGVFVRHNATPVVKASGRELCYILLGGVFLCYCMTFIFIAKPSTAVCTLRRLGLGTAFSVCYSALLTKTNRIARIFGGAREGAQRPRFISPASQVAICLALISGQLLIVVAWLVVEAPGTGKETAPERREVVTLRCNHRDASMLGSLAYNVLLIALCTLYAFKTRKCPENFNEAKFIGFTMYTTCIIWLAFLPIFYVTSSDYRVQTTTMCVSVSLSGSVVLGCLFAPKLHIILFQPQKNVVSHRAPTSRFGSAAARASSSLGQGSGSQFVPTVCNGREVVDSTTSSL", "test": "Negative allosteric modulation of mGlu2R (unknown origin)"}, "[10]": {"test": "Brain to plasma partition coefficient, Kp of the compound in rat", "type": "ADME", "details": "brain and plasma"}}, "note": "pIC50: −log10 of the molar value."}
{"molecule": "NC(=O)c1cc(-c2ccc(F)cc2F)n2nc(COc3ccnc(C(F)(F)F)c3)cc2n1", "values": [{"measurement": "fraction unbound at 4 h", "setting": "[1]", "result": "0.03 to 0.12"}, {"measurement": "Kp uu", "setting": "[2]", "result": "0.4 to 0.6"}, {"measurement": "Emax", "setting": "[3]", "result": 1.5, "unit": "%"}, {"measurement": "fraction unbound at 4 h", "setting": "[4]", "result": "0.03 to 0.12"}, {"measurement": "fraction unbound", "setting": "[5]", "result": "0.003 to 0.009"}, {"measurement": "pIC50", "setting": "[6]", "result": 6.99}, {"measurement": "Kp", "setting": "[7]", "result": "2.5 to 2.7"}]}
{"molecule": "NC(=O)c1cc(-c2ccc(F)cc2)c2sc(CN3CCSCC3)cc2n1", "values": [{"measurement": "Emax", "setting": "[3]", "result": 2.4, "unit": "%"}, {"measurement": "pIC50", "setting": "[6]", "result": 5.44}]}
{"molecule": "COc1ccc(-c2cc(C(N)=O)nc3cc(COc4ccnc(C(F)(F)F)c4)nn23)c(F)c1", "values": [{"measurement": "fraction unbound at 4 h", "setting": "[1]", "result": "0.03 to 0.12"}, {"measurement": "Kp uu", "setting": "[2]", "result": "0.4 to 0.6"}, {"measurement": "Emax", "setting": "[3]", "result": 2.1, "unit": "%"}, {"measurement": "fraction unbound at 4 h", "setting": "[4]", "result": "0.03 to 0.12"}, {"measurement": "fraction unbound", "setting": "[5]", "result": "0.003 to 0.009"}, {"measurement": "pIC50", "setting": "[6]", "result": 6.83}, {"measurement": "Kp", "setting": "[7]", "result": "2.5 to 2.7"}]}
{"molecule": "NC(=O)c1cc(-c2ccc(F)cc2)c2sc(COc3cncnc3)cc2n1", "values": [{"measurement": "Emax", "setting": "[3]", "result": 26.2, "unit": "%"}, {"measurement": "pIC50", "setting": "[6]", "result": 6.17}]}
{"molecule": "Cn1ccc(OCc2cc3nc(C(N)=O)cc(-c4ccc(F)cc4)c3s2)n1", "values": [{"measurement": "Emax", "setting": "[3]", "result": 1.9, "unit": "%"}, {"measurement": "pIC50", "setting": "[6]", "result": 5.82}]}
{"molecule": "NC(=O)c1cc(-c2ccc(F)cc2)n2nc(CCc3ccnc(C(F)(F)F)c3)cc2n1", "values": [{"measurement": "fraction unbound at 4 h", "setting": "[1]", "result": 0.04}, {"measurement": "Kp uu", "setting": "[2]", "result": 0.59}, {"measurement": "Emax", "setting": "[3]", "result": 2.3, "unit": "%"}, {"measurement": "fraction unbound at 4 h", "setting": "[4]", "result": 0.02}, {"measurement": "fraction unbound", "setting": "[5]", "result": 0.006}, {"measurement": "pIC50", "setting": "[6]", "result": 7.06}, {"measurement": "Kp", "setting": "[7]", "result": 4.25}]}
{"molecule": "COc1ccc(-c2cc(C(N)=O)nc3cc(COc4cnc(C)nc4)sc23)c(F)c1", "values": [{"measurement": "Emax", "setting": "[3]", "result": 2.7, "unit": "%"}, {"measurement": "pIC50", "setting": "[6]", "result": 6.37}]}
{"molecule": "NC(=O)c1cc(-c2ccc(F)cc2)c2sc(COc3ccc(C(F)(F)F)nc3)cc2n1", "values": [{"measurement": "pIC50", "setting": "[6]", "result": "< 5.00"}]}
{"molecule": "Cc1ccc(OCc2cc3nc(C(N)=O)cc(-c4ccc(F)cc4)c3s2)cn1", "values": [{"measurement": "fraction unbound at 4 h", "setting": "[1]", "result": 0.02}, {"measurement": "Kp uu", "setting": "[2]", "result": 0.2}, {"measurement": "Emax", "setting": "[3]", "result": 2.2, "unit": "%"}, {"measurement": "fraction unbound at 4 h", "setting": "[4]", "result": 0.05}, {"measurement": "fraction unbound", "setting": "[5]", "result": 0.003}, {"measurement": "pIC50", "setting": "[6]", "result": 6.17}, {"measurement": "Kp", "setting": "[7]", "result": 7.99}]}
{"molecule": "COc1ccc(-c2cc(C(N)=O)nc3cc(COc4ccc(F)nc4)sc23)cc1", "values": [{"measurement": "Emax", "setting": "[3]", "result": 7.2, "unit": "%"}, {"measurement": "pIC50", "setting": "[6]", "result": 5.59}]}
{"molecule": "Cc1ncccc1OCc1cc2nc(C(N)=O)cc(-c3ccc(F)cc3)c2s1", "values": [{"measurement": "Kp uu", "setting": "[2]", "result": "< 0.4"}, {"measurement": "Emax", "setting": "[3]", "result": 3.2, "unit": "%"}, {"measurement": "pIC50", "setting": "[6]", "result": 6.12}, {"measurement": "Kp", "setting": "[7]", "result": "> 2"}]}
{"molecule": "Cc1cc(OCc2cc3nc(C(N)=O)cc(-c4ccc(F)cc4)n3n2)ccn1", "values": [{"measurement": "pIC50", "setting": "[6]", "result": "< 5.00"}]}
{"molecule": "NC(=O)c1cc(-c2ccc(F)cc2)n2nc(CCc3cccnc3)cc2n1", "values": [{"measurement": "Emax", "setting": "[3]", "result": 2.9, "unit": "%"}, {"measurement": "pIC50", "setting": "[6]", "result": 5.76}]}
{"molecule": "NC(=O)c1cc(-c2ccc(F)cc2)c2sc(COc3ccc(Cl)nc3)cc2n1", "values": [{"measurement": "Kp uu", "setting": "[2]", "result": "< 0.4"}, {"measurement": "Emax", "setting": "[3]", "result": 29.3, "unit": "%"}, {"measurement": "pIC50", "setting": "[6]", "result": 6.06}, {"measurement": "Kp", "setting": "[7]", "result": "> 2"}]}
{"molecule": "Cc1ccc(OCc2cc3nc(C(N)=O)cc(-c4ccc(F)cc4)c3s2)c(C)n1", "values": [{"measurement": "Kp uu", "setting": "[2]", "result": "< 0.4"}, {"measurement": "Emax", "setting": "[3]", "result": 3.3, "unit": "%"}, {"measurement": "pIC50", "setting": "[6]", "result": 6.13}, {"measurement": "Kp", "setting": "[7]", "result": "> 2"}]}
{"molecule": "COc1ccc(-c2cc(C(N)=O)nc3cc(COc4ccc(C(F)(F)F)nc4)nn23)c(F)c1", "values": [{"measurement": "fraction unbound at 4 h", "setting": "[1]", "result": "0.03 to 0.12"}, {"measurement": "Kp uu", "setting": "[2]", "result": "0.4 to 0.6"}, {"measurement": "Emax", "setting": "[3]", "result": 4.2, "unit": "%"}, {"measurement": "fraction unbound at 4 h", "setting": "[4]", "result": "0.03 to 0.12"}, {"measurement": "fraction unbound", "setting": "[5]", "result": "0.003 to 0.009"}, {"measurement": "pIC50", "setting": "[6]", "result": 6.46}, {"measurement": "Kp", "setting": "[7]", "result": "2.5 to 2.7"}]}
{"molecule": "C[C@@H]1CN(Cc2ccc3c(c2)c(=O)c(C(N)=O)cn3-c2ccc(F)cc2)C[C@H](C)O1", "values": [{"measurement": "pIC50", "setting": "[8]", "result": "< 4.52"}, {"measurement": "pIC50", "setting": "[9]", "result": 6.68}, {"measurement": "Kp", "setting": "[10]", "result": 0.3}]}
{"molecule": "COc1ccc(-c2cc(C(N)=O)nc3cc(COc4ccnc(C)c4)nn23)c(F)c1", "values": [{"measurement": "fraction unbound at 4 h", "setting": "[1]", "result": "0.03 to 0.12"}, {"measurement": "Kp uu", "setting": "[2]", "result": "0.4 to 0.6"}, {"measurement": "Emax", "setting": "[3]", "result": 35.4, "unit": "%"}, {"measurement": "fraction unbound at 4 h", "setting": "[4]", "result": "0.03 to 0.12"}, {"measurement": "fraction unbound", "setting": "[5]", "result": "0.003 to 0.009"}, {"measurement": "pIC50", "setting": "[6]", "result": 6.54}, {"measurement": "Kp", "setting": "[7]", "result": "2.5 to 2.7"}]}
{"molecule": "NC(=O)c1cc(-c2ccc(F)cc2)c2sc(COc3ccc(F)cc3)cc2n1", "values": [{"measurement": "pIC50", "setting": "[6]", "result": "< 5.00"}]}
